Results: US20220192984A1, “PHARMACEUTICAL COMPOSITIONS COMPRISING OTIC THERAPEUTIC AGENTS AND RELATED METHODS” (Frequency Therapeutics, Inc., priority 2018, published 2022)
Read-outs that look alike come from different tables or passages of the source. Values belong to the compound of their own block, whether it stands above or below them.

How the values were obtained:
gamma secretase = conditions: cited from earlier work; for Lit cell conc: Table 23
KDM = conditions: cited from earlier work
[1] = Reconstitution time of lyophilized compositions (Tables E, 28, 35); assay type: physicochemical; conditions: for Reconstitution time (minutes) water + DMSO / Reconstitution time (minutes) with water: lyophilized 16.15% P407 with salt at 533.25 mM; for Reconstitution time (minutes) water + DMSO: reconstituted with Diluent ([…] DMSO in water); for Reconstitution time (minutes) with water: reconstituted with water; for reconstitution time of lyophilized poloxamer with added organic acid salt: poloxamer 16.15%, salt 533.25 mM
Method: Diluent 1, 0.85 mL+lyophilized cake. […] Gentle tapping on the exterior of the vessel to help the cake dissolve in the Diluent may be required while keeping it in fridge (or ice bath). To avoid degradation of the composition, minimize stirring and/or vortexing.
Diluent 1, 0.95 mL+Placebo cake: Using a syringe, add the Diluent to the Placebo cake, and rest in a fridge or ice bath (2-8° C.) for 60 minutes or until clear solution is formed. Gentle tapping on the exterior of the vessel to help the cake dissolve in the Diluent may be required while keeping it in fridge (or ice bath). To avoid degradation of the composition, minimize stirring and/or vortexing.
Powder P407 (i.e. non-lyophilized) can be obtained from BASF.
Reconstitution of lyophilized P407 (Placebo) and powder P407 was done using 850 μL Diluent (see above for example preparations of a Diluent) in a vial.
Therefore, to probe the effect of salts other than sodium valproate on reconstitution time, a poloxamer solution at 16.15% concentration either alone or including a salt (e.g. an inorganic salt or organic acid salt) at a concentration of 533.25 mM, was lyophilized. The lyophilized material was then reconstituted using Diluent for reconstitution (6.4% DMSO by wt. % in water) or with water.
Building on the results of Examples 14 to 16, further lyophilized compositions were manufactured and had their reconstitution times evaluated. […] The further lyophilized compositions were made in accordance with Example 10, and reconstituted in accordance with Example 12.

LSD1 [2] = target: T1, LSD1 (Homo sapiens, UniProt O60341); conditions: Table 18, LSD1; read-out: pKi or IC50 (converted); cited from earlier work
EZH2 [3] = target: T2, EZH2 (Homo sapiens, UniProt Q15910); conditions: Table 19, EZH2; read-out: pKi or IC50 (converted); cited from earlier work
EZH2 [4] = target: T2, EZH2; conditions: Table 19; cited from earlier work
[5] = cited from earlier work
[6] = Perilymph Conc. listed for agents (Tables 14-25)
Lgr5+ cells = assay: Lgr5+ Assay (Lgr5+ cell assay in vitro); assay type: cell-based
LSD1 [7] = target: T1, LSD1; conditions: Table 18, cited from earlier work
[8] = Table 21, KDM 5, read-out: Select KDM 5
[9] = Table 23, Aβ40, read-out: Lit cell conc IC50, Aβ40
[10] = Table 23, Aβ42, read-out: Lit cell conc IC50, Aβ42

T2 sequence (Q15910 whole entry, species assumed): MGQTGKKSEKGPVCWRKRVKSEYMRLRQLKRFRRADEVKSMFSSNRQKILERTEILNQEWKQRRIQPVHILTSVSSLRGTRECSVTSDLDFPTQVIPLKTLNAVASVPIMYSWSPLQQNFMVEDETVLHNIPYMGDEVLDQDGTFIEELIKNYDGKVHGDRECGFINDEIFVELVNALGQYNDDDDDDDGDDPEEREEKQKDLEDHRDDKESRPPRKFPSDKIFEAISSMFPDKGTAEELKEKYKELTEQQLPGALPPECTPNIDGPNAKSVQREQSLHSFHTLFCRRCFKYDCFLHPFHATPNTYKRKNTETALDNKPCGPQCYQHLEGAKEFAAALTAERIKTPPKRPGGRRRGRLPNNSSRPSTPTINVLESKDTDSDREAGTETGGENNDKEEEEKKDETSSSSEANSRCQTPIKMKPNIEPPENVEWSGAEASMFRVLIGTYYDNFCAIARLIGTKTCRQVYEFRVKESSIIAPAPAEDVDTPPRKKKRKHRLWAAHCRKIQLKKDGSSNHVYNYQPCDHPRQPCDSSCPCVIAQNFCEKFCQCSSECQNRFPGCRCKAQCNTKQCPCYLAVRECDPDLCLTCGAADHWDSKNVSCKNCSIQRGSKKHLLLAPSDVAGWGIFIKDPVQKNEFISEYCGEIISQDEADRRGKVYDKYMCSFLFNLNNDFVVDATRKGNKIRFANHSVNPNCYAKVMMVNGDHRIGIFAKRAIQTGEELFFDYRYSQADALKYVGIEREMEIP
T2 sequence (O75530 whole entry partner, species assumed): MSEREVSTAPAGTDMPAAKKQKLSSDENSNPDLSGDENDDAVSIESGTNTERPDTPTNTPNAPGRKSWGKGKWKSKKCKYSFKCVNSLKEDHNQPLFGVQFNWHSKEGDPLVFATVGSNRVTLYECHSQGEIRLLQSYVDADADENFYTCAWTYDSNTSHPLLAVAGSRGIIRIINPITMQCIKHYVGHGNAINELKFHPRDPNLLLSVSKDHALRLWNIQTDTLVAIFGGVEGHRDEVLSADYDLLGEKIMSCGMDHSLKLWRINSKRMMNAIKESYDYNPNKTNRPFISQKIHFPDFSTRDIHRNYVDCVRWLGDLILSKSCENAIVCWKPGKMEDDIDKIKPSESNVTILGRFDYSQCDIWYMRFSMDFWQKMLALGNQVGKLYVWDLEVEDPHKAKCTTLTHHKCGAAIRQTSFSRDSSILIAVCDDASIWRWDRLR
T2 sequence (Q15022 whole entry partner, species assumed): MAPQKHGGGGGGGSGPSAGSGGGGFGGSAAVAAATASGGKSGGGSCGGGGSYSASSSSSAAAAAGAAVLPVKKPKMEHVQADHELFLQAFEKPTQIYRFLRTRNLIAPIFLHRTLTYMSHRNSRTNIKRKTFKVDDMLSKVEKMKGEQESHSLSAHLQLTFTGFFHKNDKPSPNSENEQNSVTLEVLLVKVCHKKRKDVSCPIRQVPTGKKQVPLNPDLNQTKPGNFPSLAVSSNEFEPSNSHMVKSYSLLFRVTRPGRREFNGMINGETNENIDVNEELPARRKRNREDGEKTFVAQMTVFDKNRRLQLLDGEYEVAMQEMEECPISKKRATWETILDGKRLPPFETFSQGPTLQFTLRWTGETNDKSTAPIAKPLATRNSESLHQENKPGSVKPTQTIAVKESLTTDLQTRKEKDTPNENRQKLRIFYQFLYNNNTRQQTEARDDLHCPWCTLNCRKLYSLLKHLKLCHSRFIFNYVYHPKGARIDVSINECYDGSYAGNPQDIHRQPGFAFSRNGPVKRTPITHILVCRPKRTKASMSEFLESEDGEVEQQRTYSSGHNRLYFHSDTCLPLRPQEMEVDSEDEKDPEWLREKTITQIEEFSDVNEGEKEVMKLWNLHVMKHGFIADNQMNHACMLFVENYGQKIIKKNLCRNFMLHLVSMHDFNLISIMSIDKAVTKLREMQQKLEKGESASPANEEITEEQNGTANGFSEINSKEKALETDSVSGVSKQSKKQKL

Compound: CSc1ccc(/C=C2/C(C)=C(CC(=O)O)c3cc(F)ccc32)cc1 [Suldinac sulfide]
Lit cell conc (gamma secretase): 34 µM

Compound: COc1oc(=O)c2cc(N)ccc2c1Cl [JLK 6]
Lit cell conc (gamma secretase): 30 µM

Compound: CCOC(=O)CCNc1cc(N2CCc3ccccc3CC2)nc(-c2ccccn2)n1 [GSK-J4]
IC50 (KDM; [8]): 170 nM | IC50 (KDM; Table 21, KDM 6, read-out: Select KDM 6): 28 nM

Reconstitution time (minutes) water + DMSO [1]: undissolved at end of 180 minutes | Reconstitution time (minutes) with water [1]: undissolved at end of 180 minutes
Compound: O=C([O-])O.[Na+] [Sodium Bicarbonate]

Compound: COc1c(O)cc2oc3cc(O)c(CC=C(C)C)c(O)c3c(=O)c2c1CC=C(C)C [Alpha-mangostin]
IC50 (LSD1 [2]): 2800 nM

Compound: C[C@H](NC(=O)Cc1cc(F)cc(F)c1)C(=O)N[C@H](C(=O)OC(C)(C)C)c1ccccc1 [DAPT]
IC50 (gamma secretase; Table 23, neuronal culture, Aβ42, read-out: Lit cell conc IC50, Aβ42): 200 nM | IC50 (gamma secretase; Table 23, neuronal culture, total Aβ, read-out: Lit cell conc IC50, total Aβ): 115 nM

reconstitution time of lyophilized poloxamer with added organic acid salt [1]: 420 min
Compound: C#CCC(CCCCCC)C(=O)[O-].[Na+] (stereo not shown) [Sodium 2-(prop-2-yn-1-yl) octanoate, reference compound]

Compound: COc1ccc(CCN2CCC(Nc3nc4ccccc4n3Cc3ccc(F)cc3)CC2)cc1 [Astemizole]
IC50 (EZH2 [3]): 94000 nM

Compound: COc1ccc2c(c1)c(CC(=O)O)c(C)n2C(=O)c1ccc(Cl)cc1 [Indomethacin]
Lit cell conc (gamma secretase): 25 to 50 µM

Compound: CCc1c(N(CC)C2CCOCC2)cc2oc(C3CCN(C(C)C)CC3)cc2c1C(=O)NCc1c(C)cc(C)[nH]c1=O [EBI-2511]
IC50 (EZH2 [3]): 4 nM

Compound: CCCc1cc(C)[nH]c(=O)c1CNC(=O)c1cc(-c2ccnc(N3CCN(C)CC3)c2)cc2c1cnn2C(C)C [GSK343]
Lit Cell Poten (EZH2 [4]): 174 nM

Compound: c1ccc([C@@H]2C[C@H]2NC2CCNCC2)cc1 [GSK-LSD1]
Human Plasma Conc ([5]; Table 18): 1 to 100 nM | Perilymph Conc ([6]; Table 18, lower end of range): ≥ 4 nM- | Perilymph Conc ([6]; Table 18, range or its upper end): ≤ 50 µM | Lgr5+ Assay (Lgr5+ cells; Table 18, lower end of concentration range): ≥ 4 nM-

Compound: Nc1nccc2c1ncn2C1C=C(CO)C(O)C1O (stereo not shown) [DZNep]
Lgr5+ Assay (Lgr5+ cells; Table 19, result in words): Activity | Lit Cell Poten (EZH2 [4]): 1000 nM

Compound: [Cl-].[Cl-].[Mg+2] [Magnesium Chloride]
Reconstitution time (minutes) water + DMSO [1]: 180 min | Reconstitution time (minutes) with water [1]: 180 min

Compound: CC(C)[C@H](O)C(=O)N[C@@H](C)C(=O)N[C@@H]1C(=O)N(C)CCc2ccccc21 [Semagacestat LY 450139]
IC50 (gamma secretase; Table 23, Aβ38, read-out: Lit cell conc IC50, Aβ38): 12 nM | IC50 (gamma secretase; [9]): 12.1 nM | IC50 (gamma secretase; [10]): 10.9 nM

Compound: [Cl-].[Na+] [Sodium Chloride]
Reconstitution time (minutes) water + DMSO [1]: 150 min | Reconstitution time (minutes) with water [1]: 150 min

Compound: O=S(=O)(N[C@H](CO)C(C(F)(F)F)C(F)(F)F)c1ccc(Cl)s1 [Begacestat/GSI-953]
EC50 (gamma secretase; Table 23, Aβ40, in cells, read-out: Lit cell conc EC50, lowers Aβ40): 14.8 nM | EC50 (gamma secretase; Table 23, Aβ42, in cells, read-out: Lit cell conc EC50, lowers Aβ42): 12.4 nM

Compound: Clc1ccc(N/N=C(\c2ccccc2)c2ccccn2)nc1 [JIB-04]
IC50 (KDM; [8]): 220 nM

Reconstitution time (minutes) water + DMSO [1]: 4 min | Reconstitution time (minutes) with water [1]: 4 min
Compound: C#CCC(CCCCCC)C(=O)[O-].[Na+] (stereo not drawn) [Sodium 2-(prop-2-yn-l-yl) Octanoate]

Compound: COC(=O)c1cc(CN2CCN(C(=N)N)CC2)cc(C(=O)N2CCN(C(=O)c3ccc(C(=N)N)cc3)CC2)c1 [CBB-1007]
IC50 (LSD1 [2]): 2100 nM | Lgr5+ Assay (Lgr5+ cells; Table 18, result in words): Activity | IC50 (LSD1 [7]; read-out: Literat. Cell IC50): < 5000 nM

Compound: CS(=O)(=O)c1ccc(-c2cnc(NCc3ccco3)n3cnnc23)cc1 [EED226]
Lgr5+ Assay (Lgr5+ cells; Table 19, result in words): Activity

Compound: CCN(c1cc(C#CCN2CCOCC2)cc(C(=O)NCc2c(C)cc(C)[nH]c2=O)c1C)[C@H]1CC[C@H](N(C)CCOC)CC1 [EPZ-011989]
Lit Cell Poten (EZH2 [4]): 94 nM

Compound: CN(C)CCCNc1nc(NC2CCN(Cc3ccccc3)CC2)c2ccccc2n1 [MC2694]
IC50 (LSD1 [2]): 1000 nM

Compound: O=P(O)(O)O [Potassium Phosphate]
Reconstitution time (minutes) water + DMSO [1]: undissolved at end of 180 minutes | Reconstitution time (minutes) with water [1]: undissolved at end of 180 minutes

Compound: CCc1cc(Nc2nc(-c3ccc(-n4cnc(C)c4)c(F)c3)cs2)c(C)cc1C [NGP 555]
Lit cell conc (gamma secretase): 0.01 µM

Compound: O=S(=O)(NC1CCC(c2cc(F)ccc2F)(S(=O)(=O)c2ccc(Cl)cc2)CC1)C(F)(F)F (stereo not shown) [MRK 560]
Lit cell conc (gamma secretase): 0.00065 µM

Compound: [Cl-].[K+] [Potassium Chloride]
Reconstitution time (minutes) water + DMSO [1]: 168 min | Reconstitution time (minutes) with water [1]: 180 min

Compound: O=C(O)CC[C@H]1CC[C@@](c2cc(F)ccc2F)(S(=O)(=O)c2ccc(Cl)cc2)CC1 [MK-0572]
IC50 (gamma secretase; Table 23, SH-SY5Y cells, read-out: Lit cell conc IC50): 5 nM

Perilymph Conc ([6]; Table 22, listed concentration, no test described): 1.1 to 30 µM
Compound: C=CCNc1nc(N)c(C(=O)c2ccc(Cl)s2)s1 [IBS008738, reference compound]
Lgr5+ Assay (Lgr5+ cells; Table 22): 1.1 to 30 µM

Compound: C/C(=N\NC(=O)c1cccc(S(=O)(=O)N2CCOCC2)c1)c1cc(Cl)ccc1O [SP-2509]
IC50 (LSD1 [2]): 13 nM | Lgr5+ Assay (Lgr5+ cells; Table 18, result in words): Activity | Literat. Cell (LSD1 [7]): 350 to 650 nM

Perilymph Conc ([6]; Table 19): 0.01 to 1 µM
Compound: Cc1cc(C)c(CNC(=O)c2cc(Cl)c3c(c2C)O[C@@](C)([C@H]2CC[C@H](N(C)C)CC2)O3)c(=O)[nH]1 [Valemetostat]

Compound: [Ca+2].[Cl-].[Cl-] [Calcium Chloride]
Reconstitution time (minutes) water + DMSO [1]: plugs remain at end of 180 minutes | Reconstitution time (minutes) with water [1]: plugs remain at end of 180 minutes

Compound: Magnesium divalproate [reference compound]
Reconstitution time (minutes) water + DMSO [1]: 14 min | Reconstitution time (minutes) with water [1]: 14 min | reconstitution time of lyophilized poloxamer with added organic acid salt [1]: 420 min

Compound: C[C@H](NC(=O)CCC(F)(F)F)C(=O)N[C@@H]1C(=O)N(CCO)c2ncccc2-c2ccccc21 [Crenigacestat LY 3039478]
IC50 (gamma secretase; Table 23, in most of the tumor cell lines, read-out: Lit cell conc IC50): ~1 nM

Compound: NO [Hydroxylamine]
IC50 (LSD1 [2]): 121 nM

Compound: CC1=C(C(=O)OC2CCCCC2)C(c2ccc([N+](=O)[O-])cc2)C2=C(CC(C)(C)CC2=O)N1 (stereo not shown) [FLI-06]
IC50 (LSD1 [2]): 92 nM

Compound: C=CC(=O)Nc1cc(Nc2nccc(-c3cn(C)c4ccccc34)n2)c(OC)cc1N(C)CCN(C)C [Osimertinib]
Literat. Cell (LSD1 [7]): 43 nM

Compound: N[C@H]1CC[C@H](N[C@@H]2C[C@H]2c2ccccc2)CC1 [ORY-1001]
Lgr5+ Assay (Lgr5+ cells; Table 18, result in words): Activity

Compound: NC(=O)[C@@H](CCC(F)(F)F)N(Cc1ccc(-c2ncon2)cc1F)S(=O)(=O)c1ccc(Cl)cc1 [Avagacestat/BMS-708163]
IC50 (gamma secretase; [9]): 0.3 nM | IC50 (gamma secretase; [10]): 0.27 nM

Compound: O=C(O)C1(c2ccc(-c3ccc(Cl)c(Cl)c3)c(F)c2)CC1 [CHF5074]
IC50 (gamma secretase; [9]): 18400 nM

Compound: CC(C)C[C@H](C(=O)O)c1cc(-c2ccc(C(F)(F)F)cc2)cc(-c2ccc(C(F)(F)F)cc2)c1 [JNJ-40418677]
Lit cell conc (gamma secretase): 0.18 to 0.2 µM

Compound: Tanshindiol B
IC50 (EZH2 [3]): 520 nM

Perilymph Conc ([6]; Table 21): 1 to 3 µM
Compound: O=C(N/N=C/c1c(O)ccc2ccccc12)c1ccncc1 [AS 8351]
Human In Vivo Conc ([5]; Table 21): 1 to 3 µM | Lgr5+ Assay (Lgr5+ cells; Table 21): 1 to 3 µM

Compound: COc1nc(-c2cc(C)c(N[C@@H](C)c3ccc(F)cc3)nn2)ccc1-n1cnc(C)c1 [BPN-15606]
IC50 (gamma secretase; [9]): 17 nM | IC50 (gamma secretase; [10]): 7 nM

Compound: CCOc1ccc2nc3cc(N)ccc3c(N)c2c1 [Ethacridine, reference compound]
Lgr5+ Assay (Lgr5+ cells; Table 22, result in words): Activity

Compound: C[C@H](c1ccc(F)cc1CCCC(=O)O)N(c1cc(F)ccc1F)S(=O)(=O)c1ccc(Cl)cc1 [BMS 299897]
IC50 (gamma secretase; [9]): 7.4 nM | IC50 (gamma secretase; [10]): 7.9 nM

Compound: CCc1c(-c2ccccc2C)nc2c(C#N)c[nH]n2c1=O [CPI-4203]
IC50 (KDM; [8]): 1100 nM

Compound: Cc1coc2c1C(=O)C(=O)c1c-2ccc2c1CC[C@@H](O)[C@]2(C)O [Tanshindiol C]
IC50 (EZH2 [3]): 550 nM

Compound: COc1cc(C)[nH]c(=O)c1CNC(=O)c1c(C)n([C@H](C)C2CCN(CC(F)(F)F)CC2)c2ccccc12 [CPI-1205]
Human In Vivo Conc ([5]; Table 19): 0.025 to 0.25 µM | Perilymph Conc ([6]; Table 19): 0.01 to 1 µM

Compound: CC(C(=O)O)c1ccc2c(c1)[nH]c1ccc(Cl)cc12 (stereo not shown) [Carprofen]
Lit cell conc (gamma secretase): 76 µM
